These results are taken from PMC8541633, “A Novel Statin Compound from Monacolin J Produced Using CYP102A1-Catalyzed Regioselective C-Hydroxylation” (Pharmaceuticals, 2021).

Usually IC50 stands for the concentration needed to halve the response being measured. Low values mean greater potency, high ones weaker potency.

The target of one data set is T1, HMG-CoA reductase (Homo sapiens, UniProt P04035).
T1 construct: gene HMGCR
T1 sequence (P04035 1-888): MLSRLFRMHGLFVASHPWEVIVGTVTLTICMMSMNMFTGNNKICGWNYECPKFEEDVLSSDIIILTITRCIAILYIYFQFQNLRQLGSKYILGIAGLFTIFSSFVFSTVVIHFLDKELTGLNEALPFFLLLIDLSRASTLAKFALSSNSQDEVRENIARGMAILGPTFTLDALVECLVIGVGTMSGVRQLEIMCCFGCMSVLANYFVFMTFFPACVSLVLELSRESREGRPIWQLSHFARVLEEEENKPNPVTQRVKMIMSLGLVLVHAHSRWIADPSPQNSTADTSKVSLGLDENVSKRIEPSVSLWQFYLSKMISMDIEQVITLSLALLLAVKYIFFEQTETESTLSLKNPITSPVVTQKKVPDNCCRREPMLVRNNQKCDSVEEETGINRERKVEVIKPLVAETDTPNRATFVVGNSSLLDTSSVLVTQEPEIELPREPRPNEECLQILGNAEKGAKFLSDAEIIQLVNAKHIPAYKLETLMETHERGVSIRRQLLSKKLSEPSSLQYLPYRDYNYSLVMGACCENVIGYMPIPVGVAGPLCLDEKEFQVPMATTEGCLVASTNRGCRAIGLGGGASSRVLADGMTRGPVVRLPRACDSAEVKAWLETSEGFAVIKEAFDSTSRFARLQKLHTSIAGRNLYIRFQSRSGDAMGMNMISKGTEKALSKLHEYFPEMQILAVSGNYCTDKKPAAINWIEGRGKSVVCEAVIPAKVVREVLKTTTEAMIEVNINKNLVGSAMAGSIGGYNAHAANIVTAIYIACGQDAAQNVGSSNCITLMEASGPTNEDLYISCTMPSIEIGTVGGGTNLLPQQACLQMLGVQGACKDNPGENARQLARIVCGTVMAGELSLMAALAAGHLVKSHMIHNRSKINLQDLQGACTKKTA
Briefly: HMG-CoA reductase assay kit (Sigma-Aldrich), spectrophotometry at […] nm. In kind it is biochemical.

Another data set has as its target T2, CYP3A4 (Homo sapiens, UniProt P08684).
T2 construct: recombinant, E. coli membrane fractions; with rat NADPH-P450 reductase (CPR)
In words: hydroxylation by recombinant CYP3A4 membranes, HPLC and LC-MS (turnover rate). In kind it is biochemical.

T2 sequence (P08684 2-503): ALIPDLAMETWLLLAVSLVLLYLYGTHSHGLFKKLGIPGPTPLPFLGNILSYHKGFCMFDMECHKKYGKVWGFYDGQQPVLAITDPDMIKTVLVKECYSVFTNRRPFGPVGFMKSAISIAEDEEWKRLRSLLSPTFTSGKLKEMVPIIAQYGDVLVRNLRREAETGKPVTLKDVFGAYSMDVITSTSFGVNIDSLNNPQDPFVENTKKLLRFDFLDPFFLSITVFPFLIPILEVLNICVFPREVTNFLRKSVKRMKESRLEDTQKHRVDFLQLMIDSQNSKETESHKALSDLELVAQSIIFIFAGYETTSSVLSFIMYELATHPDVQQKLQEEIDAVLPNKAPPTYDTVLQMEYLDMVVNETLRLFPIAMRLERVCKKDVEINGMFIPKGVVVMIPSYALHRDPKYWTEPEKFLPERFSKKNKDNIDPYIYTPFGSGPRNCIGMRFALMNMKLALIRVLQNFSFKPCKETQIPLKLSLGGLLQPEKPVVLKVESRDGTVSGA
T2 sequence (P00388 2-678, further chain): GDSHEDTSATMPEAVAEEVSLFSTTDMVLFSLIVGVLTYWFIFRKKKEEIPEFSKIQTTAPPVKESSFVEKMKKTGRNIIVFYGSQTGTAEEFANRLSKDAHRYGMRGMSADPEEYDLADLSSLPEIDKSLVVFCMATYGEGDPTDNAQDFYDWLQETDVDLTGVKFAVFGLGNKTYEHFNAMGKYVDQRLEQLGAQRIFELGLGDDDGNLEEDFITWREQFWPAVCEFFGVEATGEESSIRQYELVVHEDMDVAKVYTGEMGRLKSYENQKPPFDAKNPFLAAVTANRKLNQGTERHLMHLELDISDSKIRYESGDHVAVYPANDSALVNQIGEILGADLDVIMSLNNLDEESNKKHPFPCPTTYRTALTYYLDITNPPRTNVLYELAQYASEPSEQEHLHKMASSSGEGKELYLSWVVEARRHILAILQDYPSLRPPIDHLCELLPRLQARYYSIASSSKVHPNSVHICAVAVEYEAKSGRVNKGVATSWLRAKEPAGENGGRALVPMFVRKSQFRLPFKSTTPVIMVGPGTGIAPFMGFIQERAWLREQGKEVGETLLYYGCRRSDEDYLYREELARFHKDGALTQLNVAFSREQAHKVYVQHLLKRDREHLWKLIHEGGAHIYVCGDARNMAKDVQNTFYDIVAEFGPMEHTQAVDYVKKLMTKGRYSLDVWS

`C[C@H]1C=CC2=C[C@H](CO)C[C@H](O)[C@@H]2[C@H]1CC[C@@H]1C[C@@H](O)CC(=O)O1` [6′a-hydroxymethyl monacolin J] displayed an IC50 against HMG-CoA reductase of 285 µM. In the case of `C[C@H]1C=C2C=C[C@H](C)[C@H](CC[C@@H]3C[C@@H](O)CC(=O)O3)[C@H]2[C@@H](O)C1` [monacolin J], on CYP3A4, the “hydroxylation by recombinant CYP3A4 membranes, HPLC and LC-MS (turnover rate)” value is on record as 0.040 nmol product min^−1 nmol P450^−1.
